Data from US20220125959A1, “PROSTATE-SPECIFIC MEMBRANE ANTIGEN (PSMA) INHIBITORS AS DIAGNOSTIC AND RADIONUCLIDE THERAPEUTIC AGENTS” (FIVE ELEVEN PHARMA INC., priority 2019, published 2022).
Values joined by “and” are separate entries in the source; they are usually repeats but may differ in a detail not shown here. Identical values can stand only once.

Assays:
[1] = test system: PC3-PIP (PSMA positive) and PC-3 tumors (PSMA negative); assay: Biodistribution of 177Lu labeled compounds 4 and 7 in tumor bearing nude mice; type: in vivo, CD-1 male nude mice
Method: (§1) ^177Lu labeling: To 10 μg ligand (1 mg/mL DMSO) were added 15 μL of 2.0 N NaOAc, 400 μL 0.05 N HCl, and 20 μL ^177Lu-solution (780 μCi (Capintec setting 450 (reading×10)). The reaction was heated with a heating block at 95° C. for 1 hour in a 3 mL closed vial. After cooling, the sample was analyzed by HPLC (HPLC: Eclipse XDB-C18 150×4.6 mm, gradient, 1 mL/min; A: 0.1% TFA in water; B: 0.1% TFA in ACN: 0-4 min A/B 85/15%; 4-11 min: from 85/15 to 30/70%; 11-14 min: from 30/70% to 85/15%). Radiochemical purity of [^177Lu]4 (FIG. 2) and [^177Lu]7 was >98% and injected doses were stable at 48 hr after formulation.
(§2) For iv injection 150 μL of labeled solution was diluted with saline to 3.75mL. Mice were injected with 150 μL of formulated dose. Injected radioactivity was 100 μCi and PSMA ligand amount was constant at 0.72 nmole/mouse.
Biodistribution of [^68Ga]4, [^177Lu]4 and [^177Lu]7 was determined in nude mice bearing PIP PC3 (PSMA positive) and PC3 (PSMA negative) tumors on the left and right shoulder, respectively, over a period of 192 h (Table 3a, 3b and 3c). […] The uptake in PC3 tumors (PSMA negative) of both ligands, [^177Lu]4 and [^177Lu]7, was clearly much lower than those of PC-3 PIP tumors (PSMA positive).

[2] = test system: PSMA-positive cell line, PIP PC3; assay: In vitro cell uptake, PIP PC3 cells; type: cell-based
Method: To determine the cell uptakes of the [^177Lu] labelled ligands, 5×10^5 cells/well were grown in 12-well plates in 1 mL of medium for 48 h. The cells were washed twice with PBS, and 900 μL fresh media were added. […] All samples were prepared in triplicate. Following the incubation at 37° C., cells were washed twice to remove unbound activity and afterwards lysed in 1 mL of 0.5 M NaOH. Activity was measured in a gamma counter. Aliquots of the solution added to the cells were also measured for the calculation of the cellular uptake as % ID.

[3] = Stability of injected doses after formulation; type: physicochemical; details: at 48 hr after formulation
Method: ^68Ga labeling: To 15 nmole ligand 4 (1 mg/mL DMSO) were added 20 μL of 2.0 N NaOAc, 500 μL ^68Ga-solution (2.25 mCi). The reaction was heated in a heating block at 90° C. for 10 minutes in a 3 mL closed vial. After cooling, the sample was analyzed by HPLC (HPLC: Eclise XDB C18 150×4.6 mm, gradient, 2 mL/min; A: 0.1% TFA in water; B: 0.1% TFA in ACN: 0-2 min 100% A; 2-4 min: from 0% to 100% B; 4-9 min: 100% B; 9-10 min: from 100% to 0% B). Radiochemical purity of [^68Ga]4 was >99% RCP (FIG. 1) and injected doses were stable at 2 hr after formulation.
as §1, §2

[4] = test system: PSMA-negative cell line, PC3; assay: In vitro cell uptake, PC3 cells; type: cell-based; details: PC3 (do not express PSMA), 60 min
Method: To determine the cell uptakes of the [^177Lu] labelled ligands, 5×10^5 cells/well were grown in 12-well plates in 1 mL of medium for 48 h. The cells were washed twice with PBS, and 900 μL fresh media were added. Radiolabelled ligand was added and the PSMA-inhibitor (2-PMPA) was applied in a final concentration of 10 μM to determine unspecific binding. All samples were prepared in triplicate. Following the incubation at 37° C., cells were washed twice to remove unbound activity and afterwards lysed in 1 mL of 0.5 M NaOH. Activity was measured in a gamma counter. Aliquots of the solution added to the cells were also measured for the calculation of the cellular uptake as % ID.

## O=C(O)CC[C@H](NC(=O)N[C@@H](CCCCNC(=O)[C@H](Cc1ccccc1)NC(=O)COc1ccc(C[C@H](NC(=O)CNC(=O)CCC(C(=O)O)N2CCN(CC(=O)O)CCN(C(CCC(=O)NCCOCCOCCNC(=O)CCCc3ccc(I)cc3)C(=O)O)CCN(CC(=O)O)CC2)C(=O)O)cc1)C(=O)O)C(=O)O.[177Lu] (stereo partly shown) [[^177Lu]7]
[1]; 1 hr
  Biodistribution: Blood: 13.20 ± 3.17 % dose/g
  Biodistribution: Bone: 1.78 ± 0.97 % dose/g
  Biodistribution: Brain: 0.35 ± 0.04 % dose/g
  Biodistribution: Heart: 3.79 ± 0.67 % dose/g
  Biodistribution: Intestine: 1.89 ± 0.18 % dose/g
  Biodistribution: Kidney: 37.38 ± 4.08 % dose/g
  Biodistribution: Liver: 2.63 ± 0.69 % dose/g
  Biodistribution: Lung: 5.89 ± 0.53 % dose/g
  Biodistribution: Muscle: 1.88 ± 0.27 % dose/g
  Biodistribution: PC3 tumor: 5.26 ± 1.63 % dose/g
  Biodistribution: PIP PC3 tumor: 12.51 ± 0.94 % dose/g
  Biodistribution: Pancreas: 1.71 ± 0.40 % dose/g
  Biodistribution: Skin: 5.18 ± 1.59 % dose/g
  Biodistribution: Spleen: 2.87 ± 0.82 % dose/g
  Biodistribution: Stomach: 1.57 ± 0.39 % dose/g
[1]; 4 hrs
  Biodistribution: Blood: 12.06 % dose/g and 12.06 ± 2.26 % dose/g
  Biodistribution: Bone: 2.05 ± 0.89 % dose/g
  Biodistribution: Brain: 0.37 ± 0.08 % dose/g
  Biodistribution: Heart: 3.96 ± 0.63 % dose/g
  Biodistribution: Intestine: 2.97 ± 1.71 % dose/g
  Biodistribution: Kidney: 60.07 ± 2.41 % dose/g
  Biodistribution: Liver: 2.92 ± 0.85 % dose/g
  Biodistribution: Lung: 6.07 ± 0.66 % dose/g
  Biodistribution: Muscle: 1.55 ± 0.84 % dose/g
  Biodistribution: PC3 tumor: 5.17 ± 1.02 % dose/g
  Biodistribution: PIP PC3 tumor: 35.34 ± 12.11 % dose/g
  Biodistribution: Pancreas: 2.08 ± 0.82 % dose/g
  Biodistribution: Skin: 5.85 ± 2.04 % dose/g
  Biodistribution: Spleen: 6.16 ± 2.81 % dose/g
  Biodistribution: Stomach: 1.86 ± 1.12 % dose/g
[1]; 24 hrs (1 day)
  Biodistribution: Blood: 1.79 ± 0.98 % dose/g
  Biodistribution: Bone: 0.33 ± 0.14 % dose/g
  Biodistribution: Brain: 0.08 ± 0.04 % dose/g
  Biodistribution: Heart: 0.73 ± 0.42 % dose/g
  Biodistribution: Intestine: 0.41 ± 0.24 % dose/g
  Biodistribution: Kidney: 18.51 ± 7.79 % dose/g
  Biodistribution: Liver: 0.57 ± 0.27 % dose/g
  Biodistribution: Lung: 1.33 ± 0.85 % dose/g
  Biodistribution: Muscle: 0.36 ± 0.24 % dose/g
  Biodistribution: PC3 tumor: 2.15 ± 0.69 % dose/g
  Biodistribution: PIP PC3 tumor: 35.34±12.11 % dose/g and 34.36 ± 6.87 % dose/g
  Biodistribution: Pancreas: 0.45 ± 0.30 % dose/g
  Biodistribution: Skin: 1.37 ± 0.63 % dose/g
  Biodistribution: Spleen: 0.75 ± 0.17 % dose/g
  Biodistribution: Stomach: 0.36 ± 0.23 % dose/g
[1]; 48 hrs (2 days)
  Biodistribution: Blood: 0.84 ± 0.25 % dose/g
  Biodistribution: Bone: 0.19 ± 0.03 % dose/g
  Biodistribution: Brain: 0.06 ± 0.01 % dose/g
  Biodistribution: Heart: 0.59 ± 0.21 % dose/g
  Biodistribution: Intestine: 0.23 ± 0.07 % dose/g
  Biodistribution: Kidney: 16.13 ± 6.19 % dose/g
  Biodistribution: Liver: 0.42 ± 0.08 % dose/g
  Biodistribution: Lung: 0.93 ± 0.26 % dose/g
  Biodistribution: Muscle: 0.22 ± 0.07 % dose/g
  Biodistribution: PC3 tumor: 1.77 ± 0.55 % dose/g
  Biodistribution: PIP PC3 tumor: 41.80 ± 10.71 % dose/g
  Biodistribution: Pancreas: 0.39 ± 0.18 % dose/g
  Biodistribution: Skin: 0.63 ± 0.03 % dose/g
  Biodistribution: Spleen: 1.27 ± 1.12 % dose/g
  Biodistribution: Stomach: 0.18 ± 0.02 % dose/g
[1]; 96 hrs (4 days)
  Biodistribution: Blood: 0.11 ± 0.10 % dose/g
  Biodistribution: Bone: 0.11 ± 0.01 % dose/g
  Biodistribution: Brain: 0.02 ± 0.01 % dose/g
  Biodistribution: Heart: 0.30 ± 0.23 % dose/g
  Biodistribution: Intestine: 0.19 ± 0.18 % dose/g
  Biodistribution: Kidney: 4.28 ± 2.61 % dose/g
  Biodistribution: Liver: 0.22 ± 0.09 % dose/g
  Biodistribution: Lung: 0.31 ± 0.22 % dose/g
  Biodistribution: Muscle: 0.18 ± 0.12 % dose/g
  Biodistribution: PC3 tumor: 0.97 ± 0.56 % dose/g
  Biodistribution: PIP PC3 tumor: 24.23 ± 13.09 % dose/g
  Biodistribution: Pancreas: 0.09 ± 0.06 % dose/g
  Biodistribution: Skin: 0.46 ± 0.22 % dose/g
  Biodistribution: Spleen: 0.52 ± 0.30 % dose/g
  Biodistribution: Stomach: 0.09 ± 0.06 % dose/g
[1]; 192 hrs (8 days)
  Biodistribution: Blood: 0.01 ± 0.00 % dose/g
  Biodistribution: Bone: 0.09 ± 0.01 % dose/g
  Biodistribution: Brain: 0.01 ± 0.00 % dose/g
  Biodistribution: Heart: 0.07 ± 0.01 % dose/g
  Biodistribution: Intestine: 0.12 ± 0.05 % dose/g
  Biodistribution: Kidney: 1.58 ± 0.43 % dose/g
  Biodistribution: Liver: 0.12 ± 0.02 % dose/g
  Biodistribution: Lung: 0.09 ± 0.02 % dose/g
  Biodistribution: Muscle: 0.03 ± 0.00 % dose/g
  Biodistribution: PC3 tumor: 0.35 ± 0.03 % dose/g
  Biodistribution: PIP PC3 tumor: 13.14 ± 2.57 % dose/g
  Biodistribution: Pancreas: 0.03 ± 0.00 % dose/g
  Biodistribution: Skin: 0.16 ± 0.03 % dose/g
  Biodistribution: Spleen: 0.30 ± 0.07 % dose/g
  Biodistribution: Stomach: 0.10 ± 0.09 % dose/g
[1]; mouse, in vivo
  Time of highest uptake in PIP PC3 tumors: 48 h
  Uptake in PC3 tumors (PSMA negative) versus PC-3 PIP tumors (PSMA positive): much lower
[2]; PIP PC3, 5 min
  In vitro cell uptake: 5.0 % ID per 5 × 10^5 cells
[2]; PIP PC3, 15 min
  In vitro cell uptake: 7.8 % ID per 5 × 10^5 cells
[2]; PIP PC3, 30 min
  In vitro cell uptake: 10.1 % ID per 5 × 10^5 cells
[2]; PIP PC3, 60 min
  In vitro cell uptake: 11.4 % ID per 5 × 10^5 cells
[2]; PIP PC3, 60 min, with PSMA inhibitor (2-PMPA, 2 uM)
  In vitro cell uptake: 1.3 % ID per 5 × 10^5 cells
[2]; PIP PC3, 120 min
  In vitro cell uptake: 11.9 % ID per 5 × 10^5 cells
[3]
  Stability of injected doses: stable
[4]
  In vitro cell uptake: 0.7 % ID per 5 × 10^5 cells
